Reference: ChEMBL document CHEMBL1144164, “Carbonic anhydrase inhibitors: inhibition of the beta-class enzymes from the fungal pathogens Candida albicans and Cryptococcus neoformans with simple anions” (Bioorg Med Chem Lett, 2008)

What was measured:
[1] = system: Cryptococcus neoformans
Description: Inhibition of Cryptococcus neoformans Can2 at 20 degC by CO2 hydration method

[2] = target: Carbonic anhydrase 1 (Homo sapiens) (UniProt P00915)
Description: Inhibition of human carbonic anhydrase 1 at 20 degC by CO2 hydration method

[3] = target: T1, Carbonic anhydrase (Methanobacterium thermoautotrophicum) (UniProt Q50565); settings: Methanothermobacter thermautotrophicus
T1 sequence (whole entry): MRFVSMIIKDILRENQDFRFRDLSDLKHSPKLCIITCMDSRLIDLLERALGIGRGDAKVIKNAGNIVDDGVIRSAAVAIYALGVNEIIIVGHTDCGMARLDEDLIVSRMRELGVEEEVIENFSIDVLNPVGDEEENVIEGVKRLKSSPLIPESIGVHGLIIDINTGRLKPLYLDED
Description: Inhibition of Methanobacterium thermoautotrophicum Cab at 20 degC by CO2 hydration method

[4] = target: Carbonic anhydrase 2 (Homo sapiens) (UniProt P00918)
Description: Inhibition of human carbonic anhydrase 2 at 20 degC by CO2 hydration method

Chain of Carbonic anhydrase 1 (Homo sapiens) (P00915 2-261 limits assumed): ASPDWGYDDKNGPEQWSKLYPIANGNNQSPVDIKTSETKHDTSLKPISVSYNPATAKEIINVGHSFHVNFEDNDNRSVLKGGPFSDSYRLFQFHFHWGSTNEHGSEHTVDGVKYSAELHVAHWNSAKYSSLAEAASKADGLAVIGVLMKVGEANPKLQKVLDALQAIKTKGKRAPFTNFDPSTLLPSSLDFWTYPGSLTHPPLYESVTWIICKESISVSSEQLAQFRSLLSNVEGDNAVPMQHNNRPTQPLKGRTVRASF

## NS(=O)(=O)O
[1]
  Kinact: 8.22 mM
[2]
  Kinact: 0.021 mM
[3]
  Kinact: 44 mM
[4]
  Kinact: 0.39 mM
